Measurements taken from patent publication US20260345573A1, “METHOD OF TREATMENT WITH ILOPERIDONE” (Vanda Pharmaceuticals Inc., priority 2023, published 2026).
Entries after “also recorded” stand apart in the source; their conditions may differ. One block for each compound: values may come before it.

Tests used:
Type in all cases: in vivo, human
[1] = Studies 3201 and 3101 (Examples 1 and 2), conclusions on serum urate
Protocol: (§1) A multi-center, randomized, double-blind, placebo-controlled study is performed to evaluate the safety and efficacy of iloperidone for four (4) weeks in the treatment of patients with acute manic episodes associated with bipolar I disorder (“Study 3201”). Patients in the study are randomized to orally receive either iloperidone at a dose of 24 mg/day given in a divided dose as 12 mg twice daily (bid), or matched placebo.
(§2) A study is performed to evaluate the efficacy and safety of iloperidone compared with placebo and active control (ziprasidone) in subjects with acute schizophrenia (“Study 3101”). Patients are randomized to receive one of iloperidone at a dose of 24 mg/day given in a divided dose as 12 mg twice daily (bid), active comparator ziprasidone, or placebo. […] Uric acid results are converted to SI units using the conversion 1 mg/dL=59.5 μmol/L.

[2] = Study 3101: serum urate (uric acid) in subjects with acute schizophrenia, by SLC2A9 rs7442295 genotype
Protocol: as §2
Results are provided in Table 6 below, including an increase of 28.0 μmol/L for iloperidone compared to a decrease of 4.2 μmol/L in placebo groups.
Patient genotypes are obtained via a commercial 500k SNP Gene Chip Human Mapping Array. To test the hypothesis of altered urate serum levels in association with variants in SLC2A9, linear models for SLC2A9 variants are performed on urate at baseline levels (corrected for PCs, age, sex) followed by samples collected at end of study (EOS).

[3] = Study 3201: serum urate in patients with acute manic episodes associated with bipolar I disorder, by SLC2A9 rs7442295 genotype and sex; details: for LS Mean Change (SE) in serum urate from baseline: 24 mg/day oral (12 mg bid)
Protocol: as §1
These increases are illustrated in FIG. 1 using solid data points.
To test the hypothesis of altered urate serum levels in association with variants in the SLC2A9 gene, whole genome sequencing is conducted from blood samples, genotype status is obtained through standard data analysis, and linear models for SLC2A9 variants are performed on urate concentration in samples collected at baseline (corrected for PCs, age, sex) and samples collected at the end of the study (EOS).
As shown in FIGS. 3-4, the rs7442295 variant of interest has a statistically significant effect on iloperidone-induced change in serum urate levels from baseline to Day 28 in patients with bipolar disorder. FIG. 3 illustrates individual patient changes in serum urate (in μmol/L) from baseline to Day 28, grouped according to treatment group (iloperiodone or placebo) and carrier status for variant rs7442295, while FIG. 4 illustrates mean serum levels for at patient evaluations conducted at baseline and Day 28, separated according to treatment group (iloperidone or placebo) and patient carrier status for rs7442295. The significant interaction affecting change is particularly observed between genotype*sex*treatment (full model: Multiple R-squared: 0.09251, Adjusted R-squared: 0.07078, F-statistic: 4.256 on 8 and 334 DF, p=0.00006942).
This observation is statistically significant when comparing genotypes at BOS as well as when comparing GG with AG and AA genotypes between treatment and placebo group in both males and females combined. Table 2 (below) provides mean change from baseline to Day 28 by treatment group and carrier status for variant rs7442295, and Table 3 (below) provides LS mean change in serum urate from baseline to Day 28 evaluations for serum urate by treatment group and carrier status for variant rs7442295) (SD=standard deviation).

Increase in serum urate in G/G patients (in words) ([1]; genotype G/G, both studies): nearly twice as large
Serum urate at Day 0 (SE) ([2]; Day 0, iloperidone group, schizophrenia, n=300): 318.3 (73.19), 300 μmol/L
LS Mean Difference (95% CI) in serum urate change vs placebo ([2]; Day 14, schizophrenia): 18.4 (6.55. 29.93) μmol/L
LS Mean Change (SE) in serum urate from baseline ([2]; Day 14, 24 mg/day (12 mg bid), schizophrenia, n=276): 15.5 (58.85), 276 μmol/L
LS Mean Difference (95% CI) in serum urate change vs placebo ([2]; Day 28, genotype AA): 10.05 (14.90, 35.97) μmol/L
LS Mean Difference (95% CI) in serum urate change vs placebo ([2]; Day 28, genotype AG): 30.02 (−2.86, 57.63) μmol/L
LS Mean Difference (95% CI) in serum urate change vs placebo ([2]; Day 28, genotype GG): 52.4 (0.33, 104.45) μmol/L
Fold greater increase from baseline in blood uric acid compared to placebo ([2]; Day 28, schizophrenia): roughly 4 fold
LS Mean Difference (95% CI) in serum urate change vs placebo ([2]; Day 28, schizophrenia): 23.8 (9.16. 37.96) μmol/L
LS Mean Change (SE) in serum urate from baseline ([2]; Day 28, iloperidone 24 mg/day (12 mg bid), schizophrenia, n=206): 28.0 (4.05), 206 μmol/L
LS Mean Change (SE) in serum urate from baseline ([2]; Day 28, iloperidone 24 mg/day (12 mg bid), schizophrenia, n=206, listed as iloperidone): 28.0 µmol/L
Percentage of patients with serum urate above ULN ([3]; Baseline, female, genotype AA (4/42), ULN 394 μmol/l): 9.5%
Percentage of patients with serum urate above ULN ([3]; Baseline, female, genotype AG (3/39), ULN 394 μmol/l): 7.7%
Percentage of patients with serum urate above ULN ([3]; Baseline, female, genotype GG (0/7), ULN 394 μmol/l): 0.0%
Serum urate at baseline (SE) ([3]; Baseline, iloperidone group, bipolar mania, n=206): 323.0 (77.13), 206 μmol/L
Percentage of patients with serum urate above ULN ([3]; Baseline, male, genotype AA (6/60), ULN 453 μmol/l): 10.0%
Percentage of patients with serum urate above ULN ([3]; Baseline, male, genotype AG (1/41), ULN 453 μmol/l): 2.4%
Percentage of patients with serum urate above ULN ([3]; Baseline, male, genotype GG (1/12), ULN 453 μmol/l): 8.3%
Percentage of patients with serum urate above ULN ([3]; Baseline, male, genotype GG (1/12), ULN 453 μmol/l, listed as iloperidone): about 8.3%
LS Mean Difference (95% CI) in serum urate change vs placebo ([3]; Day 7, bipolar mania): 1.3 (−9.29, 11.88) μmol/L
LS Mean Change (SE) in serum urate from baseline ([3]; Day 7, bipolar mania, n=199): −2.7 (−4.07), 199 μmol/L
LS Mean Difference (95% CI) in serum urate change vs placebo ([3]; Day 14, bipolar mania): 15.3 (4.50, 26.15) μmol/L
LS Mean Change (SE) in serum urate from baseline ([3]; Day 14, bipolar mania, n=173): 12.6 (−4.28), 173 μmol/L
LS Mean Difference (95% CI) in serum urate change vs placebo ([3]; Day 21, bipolar mania): 21.0 (8.91, 33.18) μmol/L
LS Mean Change (SE) in serum urate from baseline ([3]; Day 21, bipolar mania, n=157): 19.1 (−5.24), 157 μmol/L
LS Mean Change (SE) in serum urate from baseline ([3]; Day 28 (endpoint), bipolar mania, n=142): 27.2 (−4.93), 142 μmol/L
LS Mean Change (SE) in serum urate from baseline ([3]; Day 28 (endpoint), bipolar mania, n=142, listed as iloperidone): 27.2 µmol/L
Fold greater increase in serum urate from baseline compared to placebo ([3]; Day 28, bipolar mania): 4 fold
LS Mean Difference (95% CI) in serum urate change vs placebo ([3]; Day 28, bipolar mania): 27.1 (14.94, 39.20) μmol/L
LS Mean Difference (95% CI) in serum urate change vs placebo ([3]; Day 28, genotype AA, female): 27.85 (2.93, 52.76) μmol/L
LS Mean Difference (95% CI) in serum urate change vs placebo ([3]; Day 28, genotype AA, male): 35.52 (12.82, 58.22) μmol/L
LS Mean Difference in serum urate change vs placebo ([3]; Day 28, genotype AA, 95% CI (14.82, 49)): 31.91 µmol/L
LS Mean Difference (95% CI) in serum urate change vs placebo ([3]; Day 28, genotype AG, female): −7.9 (−34.82, 19.03) μmol/L
LS Mean Difference (95% CI) in serum urate change vs placebo ([3]; Day 28, genotype AG, male): 40.79 (14.61, 66.96) μmol/L
LS Mean Difference in serum urate change vs placebo ([3]; Day 28, genotype AG, 95% CI (−4.18, 33.86)): 14.84 µmol/L
LS Mean Difference (95% CI) in serum urate change vs placebo ([3]; Day 28, genotype GG, female): 3.08 (−50.97, 57.13) μmol/L
LS Mean Difference (95% CI) in serum urate change vs placebo ([3]; Day 28, genotype GG, male): 102.96 (48.93, 156.99) μmol/L
LS Mean Difference in serum urate change vs placebo ([3]; Day 28, genotype GG, 95% CI (18.91, 94.99)): 56.95 µmol/L
Mean change from baseline in serum urate ([3]; Day 28, 24 mg/day, all genotypes, bipolar mania): 33.4 µmol/L
LS Mean Difference (95% CI) in serum urate change vs placebo ([3]; EOS (LOCF), genotype AA, female): 15.97 (−6.71, 38.64) μmol/L
LS Mean Difference (95% CI) in serum urate change vs placebo ([3]; EOS (LOCF), genotype AA, male): 18.99 (−0.89, 38.86) μmol/L
LS Mean Difference (95% CI) in serum urate change vs placebo ([3]; EOS (LOCF), genotype AG, female): −1.4 (−25.85, 23.06) μmol/L
LS Mean Difference (95% CI) in serum urate change vs placebo ([3]; EOS (LOCF), genotype AG, male): 19.58 (−2.91, 42.08) μmol/L
LS Mean Difference (95% CI) in serum urate change vs placebo ([3]; EOS (LOCF), genotype GG, female): 4.54 (−50.43, 59.52) μmol/L
LS Mean Difference (95% CI) in serum urate change vs placebo ([3]; EOS (LOCF), genotype GG, male): 88.45 (38.7, 138.21) μmol/L
LS Mean Difference in serum urate change vs placebo ([3]; EOS, genotype AA, 95% CI (3.19, 33.28)): 18.23 µmol/L
LS Mean Difference in serum urate change vs placebo ([3]; EOS, genotype AG, 95% CI (−8.27, 25.48)): 8.61 µmol/L
LS Mean Difference in serum urate change vs placebo ([3]; EOS, genotype GG, 95% CI (18.68, 92.13)): 55.4 µmol/L
Increase in serum urate in G/G patients (in words) ([3]; genotype GG, bipolar mania): nearly twice as large
Fold increase in percentage of patients with high urate levels (above ULN) ([3]; male, genotype GG, baseline to end of study): approximately 4 fold
SMILES: COc1cc(C(C)=O)ccc1OCCCN1CCC(c2noc3cc(F)ccc23)CC1 [Iloperidone, 1-[4-[3-[4-(6-flouro-1,2-benzisoxazol-3-yl)-1-piperidinyl]propoxy]-3-methoxyphenyl]ethanone]
Effect on serum urate compared to placebo (in words) ([1]; bipolar disorder and schizophrenia): associated with increases in serum urate compared to placebo
Change from baseline in uric acid relative to ziprasidone arm (in words) ([2]; Day 28, schizophrenia): more than twice the change from baseline observed in the ziprasidone arm
Iloperidone-induced change in serum urate with GG genotype, by sex (in words) ([2]; genotype GG, male schizophrenia patients): particular pronounced in male schizophrenia patients
Effect on serum urate compared to placebo (in words) ([2]; schizophrenia, ANCOVA): statistically significant increase in serum urate
Effect on serum urate (in words) ([3]; bipolar mania, vs placebo): statistically significant increase in serum urate; also recorded: associated with increases in serum urate compared to placebo
Iloperidone-associated increase in serum urate in rs7442295-G/G individuals (in words) ([3]; genotype GG, bipolar mania): significant in individuals who are homozygous for the rs7442295 (G) allele
Serum urate relative to ULN in G/G individuals treated with iloperidone (in words) ([3]; genotype GG, especially males, ULN 453 (male), 394 (female) μmol/l): a significant number of individuals (particularly homozygous G/G males) exceed the upper limit of normal (ULN); also recorded: above ULN value in individuals that are homozygous (GG) for the rs7442295 (G) allele

LS mean change from baseline to endpoint in serum urate ([2]; ziprasidone active comparator arm, schizophrenia): 13.1 µmol/L
SMILES: O=C1Cc2cc(CCN3CCN(c4nsc5ccccc45)CC3)c(Cl)cc2N1 [ziprasidone]
Increase in serum urate relative to iloperidone (in words) ([2]; ziprasidone arm, schizophrenia): approximately half of that seen in with iloperidone treatment
